Seven compounds from ChEMBL document CHEMBL1152505, “Enaminones 10. Molecular modeling aspects of the 5-methylcyclohexenone derivatives” (Bioorg Med Chem, 2009) can be followed below.

Each structure is given as a SMILES string.

Data set [1] in a line: Toxicity in rat. In kind it is organism-based. Particulars: in vivo.
The species named for data set [2] is Rattus norvegicus. Briefly: Anticonvulsant activity against maximal electroshock-induced seizures in rat assessed as time to peak effect. In kind it is functional.
The species named for data set [3] is Rattus norvegicus. Kind of data set: Protective index, ratio of TD50 for rat to ED50 for maximal electroshock-induced rat seizure model. In kind it is functional.
The species named for data set [4] is Rattus norvegicus. Briefly: Anticonvulsant activity in rat assessed as inhibition of maximal electroshock-induced seizures. In kind it is functional.
The species named for data set [5] is Mus musculus. Briefly: Anticonvulsant activity in mouse assessed as inhibition of maximal electroshock-induced seizures. In kind it is functional.
The nature of data set [6]: Toxicity in mouse. In kind it is organism-based. The following applies: in vivo.
The species named for data set [7] is Mus musculus. Kind of data set: Protective index, ratio of TD50 for mouse to ED50 for maximal electroshock-induced mouse seizure model. In kind it is functional. In general terms: The maximal electroshock test induces tonic seizures with an electrical stimulus.
The species entered for data set [8] is Mus musculus. Kind of data set: Anticonvulsant activity against maximal electroshock-induced seizures in mouse assessed as time to peak effect. In kind it is functional.

Broadly, the TD50 is the dose at which the toxic effect under study appears in half of the subjects. Read a high TD50 as lower toxicity. Usually ED50 stands for the dose at which the effect has come halfway, by size or by number of responders. `CC1CC(=O)C=C(Nc2ccc(OC(F)(F)F)cc2)C1` (stereo unspecified) registered a TD50 in data set [1] above 400 mg/kg. In addition, in the data set listed under Rattus norvegicus [2], the Time is 0.5 h. Also, in the data set filed under Rattus norvegicus [3], the PI is recorded as above 62. In the data set listed under Rattus norvegicus [4], the ED50 came to 6.5 mg/kg.

As to `CC1CC(=O)C=C(Nc2ccc(Br)cc2)C1` (stereo unspecified), in data set [1], the TD50 was above 500 mg/kg. Moreover, in the data set filed under Rattus norvegicus [2], the Time was found to be 0.5 h. For the same compound, the PI in the data set listed under Rattus norvegicus [3] is above 65.8. The ED50 in the data set listed under Rattus norvegicus [4] was 7.6 mg/kg.

In the case of `COc1cccc(NC2=CC(=O)CC(C)C2)c1` (stereo unspecified), in data set [1], the TD50 was above 500 mg/kg. The Time in the data set filed under Rattus norvegicus [2] was found to be 0.5 h. In the data set listed under Rattus norvegicus [3], the PI was above 12.7. In addition, in the data set listed under Rattus norvegicus [4], the ED50 came out at 39.4 mg/kg.

For the compound `CC1CC(=O)C=C(Nc2ccc(Cl)cc2)C1` (stereo unspecified), the ED50 was determined as 16.7 mg/kg in the data set filed under Mus musculus [5] and 14.7 mg/kg in the data set listed under Rattus norvegicus [4]. Moreover, the figures for the TD50 in data set [6] and in data set [1] were 111 mg/kg and above 186 mg/kg, respectively. Besides, the Time in the data set listed under Rattus norvegicus [2] came to 1 h; in the data set listed under Mus musculus [8] it was 0.25 h. Also, the figures for the PI in the data set filed under Rattus norvegicus [3] and in the data set filed under Mus musculus [7] were above 83.3 and 6.6, respectively.

The compound `CC1CC(=O)C=C(Nc2ccc(C(F)(F)F)cc2)C1` (stereo unspecified) returned a TD50 in data set [1] above 500 mg/kg. For the same compound, in the data set listed under Rattus norvegicus [2], the Time was 1 h. Further, in the data set filed under Rattus norvegicus [3], the PI was above 48.4. Besides, the ED50 in the data set filed under Rattus norvegicus [4] came out at 10.3 mg/kg.

`CC1CC(=O)C=C(Nc2ccc([N+](=O)[O-])cc2)C1` (stereo unspecified) displayed a TD50 in data set [1] above 500 mg/kg. For the same compound, the Time in the data set filed under Rattus norvegicus [2] is 4 h. The PI in the data set listed under Rattus norvegicus [3] was above 27.4. The ED50 in the data set listed under Rattus norvegicus [4] turned out to be 18.4 mg/kg.

For the compound `CC1CC(=O)C=C(Nc2ccc(I)cc2)C1` (stereo unspecified), the ED50 came out at 77 mg/kg in the data set filed under Mus musculus [5] and 17.6 mg/kg in the data set filed under Rattus norvegicus [4]. Besides, the TD50 in data set [6] was 344 mg/kg; in data set [1], above 500 mg/kg. Moreover, the Time is 2 h in the data set listed under Rattus norvegicus [2] and 0.25 h in the data set filed under Mus musculus [8]. Further, the PI is given as above 28.3 in the data set listed under Rattus norvegicus [3] and 4.5 in the data set filed under Mus musculus [7].
